# Like-named read-outs stand apart in the source and are kept apart here.
# How the values were obtained:
# [1] = Metabolic stability in liver microsomes (intrinsic clearance); type: in vitro ADME
# Method: The test compound was incubated under the generic condition (0.5 mg/ml microsomal protein, 1 mM NADPH, 1 mM MgCl2, and 0.1 M phosphate buffer, pH 7.4, 37° C.) at a defined substrate concentration (typically 1 μM) in liver microsomes of selected species across a time course (typically 0, 5, 10, 20, 40 and 60 minutes) at Cyprotex (Cheshire, UK). The liver microsomes, buffer and test compound will be pre-incubated for 5 minutes. The addition of the co-factor NADPH will initiate the reaction and the reaction was terminated by addition of acetonitrile. The samples were centrifuged prior to analysis by LC-MS/MS analysis. The relative amount of parent compound remaining in the active incubations vs. the control incubations (t=0 mins) for each compound was measured by peak area comparison. The in vitro metabolic half-life (t1/2) was calculated using the slope of the log-linear regression from the percentage parent compound remaining versus time relationship (κ), The in vitro intrinsic clearance (Cl^int) (μl/min/mg microsomal protein) was calculated using the in vitro metabolic half-life, incubation volume and the weight of microsomal protein in the incubation.
# [2] = HTChem stab assay (chemical stability in buffer pH2, pH4 and pH7 vs DMSO reference); type: physicochemical
# Method: HTChem stab assay was used to assess the chemical stability of the compounds. 72 h stirring at rt in a buffer pH2, pH4 and pH7 vs a reference DMSO solution. HTChem stab assay is based on the handbook of Pharmaceutical Stress Testing, Predicting Drug Degradation, second edition, authors Baertschi, Alsante, Reed ISBN 978-143980179-6.
# Compounds were plated (1 μl 10 mM DMSO stock in 96 well plate (DMSO control+3 pH conditions), one plate per condition).
# 200 μL of respectively DMSO, Buffer/DMSO mix pH2, Buffer/DMSO mix pH4 and Buffer/DMSO mix pH7 was added.
# After 72 h shaking (300 rpm) at room temperature the samples were analysed by LC/UV/MS. Chromatograms of samples (stability conditions) were compared with the chromatograms of control sample (DMSO). Extra peaks were flagged and identified by mass spectrometry. Sample purity (reference included) were reported.
# • pH3 buffer: For 11; weigh 4.14 g NaH2PO4·H2O, add 600 ml H2O, add H3PO4 to pH3, add H2O to 1000 ml. Filter over 0.2 μm and store at 4° C. Expires after 30 days. • pH6 buffer: For 1 l; weigh 4.14 g NaH2PO4·H2O, add 600 ml H2O, add 1N NaOH to pH6, add H2O to 1000 ml. Filter over […] and store at 4° C. Expires after 30 days.
# • pH2 Buffer/DMSO (StabSolvent): mix 2 parts of HCl 0.1N with 1 part of DMSO • pH4 Buffer/DMSO (StabSolvent): mix 2 parts of buffer pH3 with 1 part of DMSO • pH7 Buffer/DMSO (StabSolvent): mix 2 parts of buffer pH6 with 1 part of DMSO measure pH prior to use.
# Instrument: Acquity UPLC; Column: Acquity HSS T3, 50 mm length×2.1 mm i.d., 1.8 μm particle size. Detectors: PDA (250-350 nm) and SQD2 (90-1500m/z). Mobile phase A: 0.1% Formic acid in water; Mobile phase B: 0.1% Formic acid in Acetonitrile.
# Injection volume: 5 μL, flow rate 0.6 mL/min.
# Data processing including peak integration and identification was done with Waters OpenLynx software.
# [3] = system: Mycobacterium tuberculosis strain H37Rv; test: Test 2: MIC determination against M. tuberculosis, resazurin fluorescence; type: cell-based; settings: Test 2, M. tuberculosis H37Rv; for MIC90: read-out: Bacterial activity MIC90; for IC50: read-out: Bacterial activity pMIC50 (converted)
# [4] = system: Salmonella typhimurium Ames II Mixed Strains (TA7001-TA7006) and TA98; test: Genotoxicity assay (AmesIIb mutagenicity test); type: cell-based; also: key: an AmesIIb score of 1 shows no genotoxicity signals
# Excerpt: The aim is to evaluate compounds (and/or their metabolites) for their ability to induce reverse mutations in a gene of histidine-requiring Salmonella typhimurium strains to produce histidine-independent strains of these bacteria, in the absence and in the presence of a mammalian metabolic activation system.
# Point mutations were made in the histidine (His) operon in Salmonella typhimurium, rendering the bacteria incapable of producing histidine. These single base substitutions are positioned at strategic points within the His gene, resulting in his-organisms that cannot grow unless histidine is supplied. When a mutagenic event occurs, base substitutions within the His gene then cause the reversion of the his-Ames II™ strains to His.
# A chemical's mutagenic potential is assessed by exposing these his-organisms to varying concentrations of chemical and selecting for the reversion event. Medium lacking histidine is used for this selection which allows only those cells that have undergone the his- to His reversion to survive and grow.
# The assay may be performed using a kit and instructions from Xenometric. The two strains provided in the Xenometric kit are the Ames II™ Mixed Strains and TA98. The Ames II™ Mixed Strains contains an equimolar mixture of the Ames II™ TA7001-TA7006 strains. Individually, these strains are designed to revert by only one specific base-pair substitution out of six possible changes. Thus, when mixed, all six base substitution mutations can be represented in one culture. This kit also contains TA98 for the detection of frameshift mutations.
# [5] = buffer pH2/DMSO, 72 h stirring at rt
# [6] = buffer pH4/DMSO, 72 h stirring at rt
# [7] = buffer pH7/DMSO, 72 h stirring at rt
# [8] = reference DMSO solution, 72 h stirring at rt
# [9] = mouse, microsomes, pH 7.4, Metabolic Stability Half life (mouse, min.)
# [10] = mouse, microsomes, pH 7.4, mouse liver microsomes, read-out: Metabolic Stability (liver microsome intrinsic clearance) Clearance (mouse, μl/min./mg protein)
# [11] = Mycobacterium tuberculosis, H37RV
Structure (SMILES),"Chemical stability data, Vehicle DMSO ([2]; 72 h, 50 µM)","Chemical stability data, Buffer pH2 ([2]; 72 h, 50 µM, pH 2)","Chemical stability data, Buffer pH4 ([2]; 72 h, 50 µM, pH 4)","Chemical stability data, Buffer pH7 ([2]; 72 h, 50 µM, pH 7)","MIC90 [3, 11]","IC50 [3, 11]",also measured
CCc1nc2cc(F)ccn2c1C(=O)NCc1ccc(-c2nc3n(n2)CCC(C(F)(F)F)C3)cc1 (racemic) [Compound 7ab],,,,,,,"Metabolic Stability (liver microsome intrinsic clearance) Clearance (mouse, μl/min./mg protein) ([1]; mouse liver microsomes): 20.5 μl/min./mg protein; Metabolic Stability Half life (mouse, min.) ([1]; mouse liver microsomes): 1.13 h; Chemical stability data, Buffer pH2 [2, 5]: 100%; Chemical stability data, Buffer pH4 [2, 6]: 100%; Chemical stability data, Buffer pH7 [2, 7]: 100%; Chemical stability data, Vehicle DMSO [2, 8]: 100%; Bacterial activity pMIC50 [3]: 8.362; MIC90 [3]: 0.014 µM"
"CCc1nc2ncc(C)cn2c1C(=O)NCc1ccc(-c2nc3n(n2)CCC(C(F)(F)F)C3)cc1 (single isomer, unassigned) [Compound 1a]",100%,100%,100%,100%,0.009 µM,3130 pM,"half-life at 1 µM ([1]; human, microsomes, pH 7.4, Metabolic Stability Half life (human, min.)): > 3 h; microsomal CLint at 1 µM ([1]; human, microsomes, pH 7.4, human liver microsomes, read-out: Metabolic Stability (liver microsome intrinsic clearance) Clearance (human, μl/min./mg protein)): < 7.7 µL/min/mg; half-life at 1 µM [1, 9]: > 3 h; microsomal CLint at 1 µM [1, 10]: < 7.7 µL/min/mg"
"O=C(NCc1ccc(-c2nc3n(n2)CCC(C(F)(F)F)C3)cc1)c1c(C(F)(F)F)nc2ncccn12 (single isomer, unassigned) [Compound 2a]",,,,,,,"Metabolic Stability (liver microsome intrinsic clearance) Clearance (human, μl/min./mg protein) ([1]; human, microsomes): <7.7 μl/min./mg protein; Metabolic Stability Half life (human, min.) ([1]; human, microsomes): >3 h; Metabolic Stability (liver microsome intrinsic clearance) Clearance (mouse, μl/min./mg protein) ([1]; mouse, microsomes): 11.4 μl/min./mg protein; Metabolic Stability Half life (mouse, min.) ([1]; mouse, microsomes): 2.02 h; Bacterial activity pMIC50 [3]: 7.648; MIC90 [3]: 0.086 µM; GeneTox AmesIIb Score [4]: 1"
"O=C(NCc1ccc(-c2nc3n(n2)CCC(C(F)(F)F)C3)cc1)c1c(C(F)(F)F)nc2ncccn12 (single isomer, unassigned) [Compound 2b]",,,,,,,"Metabolic Stability (liver microsome intrinsic clearance) Clearance (human, μl/min./mg protein) ([1]; human, microsomes): <7.7 μl/min./mg protein; Metabolic Stability Half life (human, min.) ([1]; human, microsomes): >3 h; Metabolic Stability (liver microsome intrinsic clearance) Clearance (mouse, μl/min./mg protein) ([1]; mouse, microsomes): 12.3 μl/min./mg protein; Metabolic Stability Half life (mouse, min.) ([1]; mouse, microsomes): 1.87 h; Bacterial activity pMIC50 [3]: 7.502; MIC90 [3]: 0.098 µM; GeneTox AmesIIb Score [4]: 1"
"CCc1nc2ncc(C)cn2c1C(=O)NCc1ccc(-c2cn3c(n2)CC(C(F)(F)F)CC3)cc1 (single isomer, unassigned) [Compound 3b]",,,,,,,"Metabolic Stability (liver microsome intrinsic clearance) Clearance (human, μl/min./mg protein) ([1]; human, microsomes): 26.1 μl/min./mg protein; Metabolic Stability Half life (human, min.) ([1]; human, microsomes): 0.887 h; Metabolic Stability (liver microsome intrinsic clearance) Clearance (mouse, μl/min./mg protein) ([1]; mouse, microsomes): 23.8 μl/min./mg protein; Metabolic Stability Half life (mouse, min.) ([1]; mouse, microsomes): 0.972 h; Bacterial activity pMIC50 [3]: 8.483; MIC90 [3]: 0.010 µM; GeneTox AmesIIb Score [4]: 1"
CCc1nc2ncc(CN)cn2c1C(=O)NCc1ccc(-c2nc3n(n2)CCC(C(F)(F)F)C3)cc1 (centres unmarked) [Compound 16ab],77%,74%,74%,80%,,> 500000 pM,
CCc1nc2ncc(C)cn2c1C(=O)NCc1ccc(-c2nc3n(c2C)CCC(C(F)(F)F)C3)cc1 (centres unmarked) [Compound 19ab],98%,98%,98%,98%,0.047 µM,11500 pM,
CCc1nc2ncc(C)cn2c1C(=O)NCc1ccc(-c2nn3c(c2C)CC(C(F)(F)F)CC3)cc1 (centres unmarked) [Compound 21ab],100%,100%,100%,100%,0.011 µM,3490 pM,
CCc1nc2ncc(C)cn2c1C(=O)NCc1ccc(-c2nc3n(n2)CCC(C2CC2)C3)cc1 (centres unmarked) [Compound 27ab],100%,100%,100%,100%,0.014 µM,4610 pM,
CCCC1CCn2nc(-c3ccc(CNC(=O)c4c(CC)nc5ncc(C)cn45)cc3)nc2C1 (centres unmarked) [Compound 28ab],100%,100%,100%,100%,0.011 µM,3660 pM,
CCc1nc2ncc(C)cn2c1C(=O)NCc1ccc(-c2nc3n(n2)CCCC3)c(F)c1 [Compound 32ab],100%,100%,100%,100%,0.248 µM,79800 pM,
CCc1nc2ncc(C)cn2c1C(=O)NCc1ccc(-c2nc3n(n2)CCC(OC(F)(F)F)C3)cc1 (centres unmarked) [Compound 33ab],100%,64%,100%,100%,0.039 µM,12700 pM,
O=C(NCc1ccc(-c2cn3c(n2)CC(C(F)(F)F)CC3)nc1)c1c(C(F)(F)F)nc2ccccn12 (centres unmarked) [Compound 36ab],,,,,,,"Chemical stability data, Buffer pH2 [2, 5]: 100%; Chemical stability data, Buffer pH4 [2, 6]: 100%; Chemical stability data, Buffer pH7 [2, 7]: 100%; Chemical stability data, Vehicle DMSO [2, 8]: 100%; Bacterial activity pMIC50 [3]: <6.301"
O=C(NCc1ccc(-c2nc3n(n2)CC[C@@H](C(F)(F)F)C3)cc1)c1c(C(F)F)nc2n1CCCC2 [Compound 80],,,,,0.2 µM,56200 pM,"half-life at 1 µM [1, 9]: 1.42 h; microsomal CLint at 1 µM [1, 10]: 16.3 µL/min/mg"
O=C(NCc1ccc(-c2nc3n(n2)CC[C@H](C(F)(F)F)C3)cc1)c1c(C(F)F)nc2n1CCCC2 [Compound 174],,,,,0.25 µM,67600 pM,"half-life at 1 µM [1, 9]: 1.34 h; microsomal CLint at 1 µM [1, 10]: 17.3 µL/min/mg"
CCc1nc2ncccn2c1C(=O)NCc1ccc(-c2cc3n(n2)CCC(C(F)(F)F)C3)cc1 (centres unmarked) [Compound 180],,,,,0.12 µM,20000 pM,"half-life at 1 µM [1, 9]: 2.35 h; microsomal CLint at 1 µM [1, 10]: 9.9 µL/min/mg"
CCc1nc2ncccn2c1C(=O)NCc1ccc(-c2cn3c(n2)CC(C(F)(F)F)CC3)c(F)c1 (centres unmarked) [Compound 186],,,,,0.19 µM,40700 pM,"half-life at 1 µM [1, 9]: > 3 h; microsomal CLint at 1 µM [1, 10]: < 7.7 µL/min/mg"

# Source: US20250034171A1, “IMIDAZOPYRIDINE AMIDES AND RELATED COMPOUNDS FOR USE IN THE TREATMENT OF BACTERIAL INFECTIONS” (priority 2021, published 2025)
